Laboratory results reported in patent US8415312B2, “Compound which is a nystatin derivative” (Biosergen AS, priority 2007, dated 2013).
≈ marks a conversion by molar mass, not a printed value.

Assays:
[1] = tested on: mice (C57B1/6xDBA/2)F1 B6D2F1; conditions: single injection into tail vein, probit analysis
Experimental: Male mice of hybrids of first generation (C57B1/6xDBA/2)F1 B6D2F1, weight 20-22 g., received from the Central farm. “Kryukovo” of Russian Academies of Medical Science (RAMS) were used. Animals were maintained in a vivarium in plastic cages (with hardwood bedding in environmentally controlled conditions: 24±1° C., 12/12 hours light/dark cycle) on a standard diet of bricketed forages with easy access to drinking water (ad libitum). After a 2-week quarantine period, healthy animals were used in experimental work.
The solutions were prepared as follows: dry antibiotic substances (5 mg) were mixed with dry sodium deoxycholate (4.1 mg) in a sterile glass vial. 10 mL of phosphate buffer (NaH2PO4—1.59 g; Na2HPO4—0.96 g; H2O—to 100 mL) was added to the mix and the suspension was immediately subjected to vigorous shaking for 10 minutes until homogeneous suspensions were formed.
Preparations of amphotericin B and S44HP were also prepared in the same way.
The antibiotic preparations were singly injected into the mice's tail vein within 1-1.5 hours after the preparation of solutions. […] Each antibiotic was used in a range of doses resulting in 0% to 100% lethality and a minimum of 3 intermediate doses. Animals were randomized into groups, each containing 6 mice.

[2] = tested on: Candida albicans ATCC 14053; assay: Antifungal susceptibility study (1), broth microdilution MIC; type: cell-based; conditions: lowest concentration preventing any visible growth, read at 48 hours, 35° C., RPMI 1640 pH 7.0
Experimental: (§1) ACROS ORGANICS, New Jersey, USA), pH 7.0, was used in study. […] Then these DMSO solutions were diluted 50-fold (first 10-fold and then 5-fold) in the test medium. […] The solutions were prepared just before using. The organisms used for susceptibility testing were: Candida albicans ATCC 14053, Cryptococcus humicolus ATCC 9949, Aspergillus niger ATCC 16404 and Fusarium oxysporum VKM F-140 (=CMI, IMI 90473). Organisms were stored on potato dextrose agar […] 50% glycerol solution at -70° C. For short-term storage, stock cultures were stored on agar […] 4° C. The cultures of yeasts were sub-cultured onto Sabouraud dextrose (SAB) agar and incubated for 24 hours at 35° C. (Candida albicans) or for 48 hours at 25° C. (Cryptococcus humicolus) to obtain a freshly grown pure culture. The cultures of moulds were sub-cultured onto potato dextrose agar and incubated for 7 days at 35° C. […] (Fusarium oxysporum) to ensure maximum sporulation. […] Inoculum quantitation was performed by plating dilution of the inoculum on Sabouraud dextrose agar to determine the viable number of CFU per milliliter. Sterile 96-well flat-bottomed microtitration plates were used for testing. 100 μl of diluted inocula were dispensed into each microdilution well containing 100 μl of the double dilutions of compounds. Drug-free and yeast/mould-free controls were included. Microdilution trays were incubated at 35° C. (Candida albicans and moulds) or 25° C. (Cryptococcus humicolus) without agitation and observed for the presence or absence of visible growth. […] Minimal inhibitory concentrations (MICs) were read at 48 hours.

[3] = tested on: Cryptococcus humicolus ATCC 9949; assay: as above; type: cell-based; conditions: lowest concentration preventing any visible growth, read at 48 hours, 25° C., RPMI 1640 pH 7.0
Experimental: as §1

[4] = tested on: Fusarium oxysporum VKM F-140; assay: as above; type: cell-based; conditions: lowest concentration preventing any visible growth, read at 48 hours, 35° C., RPMI 1640 pH 7.0
Experimental: (§2) ACROS ORGANICS, New Jersey, USA), pH 7.0, was used in study. […] Then these DMSO solutions were diluted 50-fold (first 10-fold and then 5-fold) in the test medium. […] The solutions were prepared just before using. The organisms used for susceptibility testing were: Candida albicans ATCC 14053, Cryptococcus humicolus ATCC 9949, Aspergillus niger ATCC 16404 and Fusarium oxysporum VKM F-140 (=CMI, IMI 90473). Organisms were stored on potato dextrose agar […] 50% glycerol solution at -70° C. For short-term storage, stock cultures were stored on agar […] 4° C. The cultures of yeasts were sub-cultured onto Sabouraud dextrose (SAB) agar and incubated for 24 hours at 35° C. (Candida albicans) or for 48 hours at 25° C. (Cryptococcus humicolus) to obtain a freshly grown pure culture. The cultures of moulds were sub-cultured onto potato dextrose agar and incubated for 7 days at 35° C. […] (Fusarium oxysporum) to ensure maximum sporulation. […] Finally, the suspensions were vortexed for 15 s to break up clumps of cells and then filtered through four layers of sterile gauze. The densities of conidial spore suspensions was measured at 530 nm and adjusted to 0.09-0.11 for Aspergillus niger and 0.15-0.17 for Fusarium oxysporum. These suspensions were diluted 1:50 with the standard medium. […] Inoculum quantitation was performed by plating dilution of the inoculum on Sabouraud dextrose agar to determine the viable number of CFU per milliliter. Sterile 96-well flat-bottomed microtitration plates were used for testing. 100 μl of diluted inocula were dispensed into each microdilution well containing 100 μl of the double dilutions of compounds. Drug-free and yeast/mould-free controls were included. Microdilution trays were incubated at 35° C. (Candida albicans and moulds) or 25° C. (Cryptococcus humicolus) without agitation and observed for the presence or absence of visible growth. […] Minimal inhibitory concentrations (MICs) were read at 48 hours.

[5] = tested on: Aspergillus niger ATCC 16404; assay: as above; type: cell-based; conditions: lowest concentration preventing any visible growth, read at 48 hours, 35° C., RPMI 1640 pH 7.0
Experimental: as §2

Row | SMILES | LD50 [1] | MTD [1] | MIC Candida albicans ATCC 14053 [2] | MIC Cryptococcus humicolus ATCC 9949 [3] | MIC Fusarium oxysporum VKM F-140 [4] | MIC Aspergillus niger ATCC 16404 [5]
1 | CC1C=CC=CC=CC=CC=CC=CC=CC(OC2OC(C)C(O)C(N)C2O)CC2OC(O)(CC(O)CCCC(O)CC(O)CC(O)CC(=O)OC(C)C(C)C1O)CC(O)C2C(=O)NCCN(C)C.NC(CCC(=O)O)C(=O)O (centres unmarked) [Compound 27] | 20.6 mg/kg | 10.8 mg/kg |  |  |  | 
2 | CC1C=CC=CC=CC=CC=CC=CC=CC(OC2OC(C)C(O)C(N)C2O)CC2OC(O)(CC(O)C(O)CCC(O)CC(O)CC(O)CC(=O)OC(C)C(C)C1O)CC(O)C2C(=O)NCCN(C)C.NC(CCC(=O)O)C(=O)O (centres unmarked) [Compound 28] | 22.1 mg/kg | 14.7 mg/kg |  |  |  | 
3 | CC1O[C@@H](O[C@H]2/C=C/C=C/C=C/C=C/C=C/C=C/C=C/[C@H](C)[C@@H](O)[C@@H](C)[C@H](C)OC(=O)C[C@H](O)C[C@H](O)C[C@H](O)CC[C@@H](O)[C@H](O)C[C@]3(O)C[C@H](O)[C@@H](C(=O)NCCN(C)C)[C@H](C2)O3)[C@H](O)C(NCc2ccc(N(C)C)cc2)[C@@H]1O (some centres unmarked) [Compound 43] |  |  | 1 µg/mL (≈ 0.887 µM) | 1 µg/mL (≈ 0.887 µM) | 4 µg/mL (≈ 3.55 µM) | 1 µg/mL (≈ 0.887 µM)
4 | CC1O[C@@H](O[C@H]2/C=C/C=C/C=C/C=C/C=C/C=C/C=C/[C@H](C)[C@@H](O)[C@@H](C)[C@H](C)OC(=O)C[C@H](O)C[C@H](O)C[C@H](O)CC[C@@H](O)[C@H](O)C[C@]3(O)C[C@H](O)[C@@H](C(=O)NCCN(C)C)[C@H](C2)O3)[C@H](O)C(NC(=O)[C@@H](N)CCCCN)[C@@H]1O.Cl (some centres unmarked) [Compound 44] |  |  | 1 µg/mL | 2 µg/mL | 4 µg/mL | 2 µg/mL
5 | CC1O[C@@H](O[C@H]2/C=C/C=C/C=C/C=C/C=C/C=C/C=C/[C@H](C)[C@@H](O)[C@@H](C)[C@H](C)OC(=O)C[C@H](O)C[C@H](O)C[C@H](O)CC[C@@H](O)[C@H](O)C[C@]3(O)C[C@H](O)[C@@H](C(=O)NCCN(C)C)[C@H](C2)O3)[C@H](O)C(NC(=O)CN(C)C)[C@@H]1O (some centres unmarked) [Compound 45] |  |  | 1 µg/mL (≈ 0.926 µM) | 2 µg/mL (≈ 1.85 µM) | 4 µg/mL (≈ 3.71 µM) | 1 µg/mL (≈ 0.926 µM)
6 | CC1O[C@@H](O[C@H]2/C=C/C=C/C=C/C=C/C=C/C=C/C=C/[C@H](C)[C@@H](O)[C@@H](C)[C@H](C)OC(=O)C[C@H](O)C[C@H](O)C[C@H](O)CC[C@@H](O)[C@H](O)C[C@]3(O)C[C@H](O)[C@@H](C(=O)NCCN(C)C)[C@H](C2)O3)[C@H](O)C(NC(=O)c2ccc(CN)cc2)[C@@H]1O (some centres unmarked) [Compound 46] |  |  | 2 µg/mL (≈ 1.77 µM) | 2 µg/mL (≈ 1.77 µM) | 4 µg/mL (≈ 3.55 µM) | 2 µg/mL (≈ 1.77 µM)
7 | CC1O[C@@H](O[C@H]2/C=C/C=C/C=C/C=C/C=C/C=C/C=C/[C@H](C)[C@@H](O)[C@@H](C)[C@H](C)OC(=O)C[C@H](O)C[C@H](O)C[C@H](O)CC[C@@H](O)[C@H](O)C[C@]3(O)C[C@H](O)[C@@H](C(=O)O)[C@H](C2)O3)[C@H](O)C(NC(=O)c2ccc(CN)cc2)[C@@H]1O (some centres unmarked) [Compound 47, N-(4-Aminomethylbenzoyl) S44HP] |  |  | 2 µg/mL (≈ 1.89 µM) | 2 µg/mL (≈ 1.89 µM) | 16 µg/mL (≈ 15.1 µM) | 4 µg/mL (≈ 3.78 µM)
8 | CC1O[C@@H](O[C@H]2/C=C/C=C/C=C/C=C/C=C/C=C/C=C/[C@H](C)[C@@H](O)[C@@H](C)[C@H](C)OC(=O)C[C@H](O)C[C@H](O)C[C@H](O)CC[C@@H](O)[C@H](O)C[C@]3(O)C[C@H](O)[C@@H](C)[C@H](C2)O3)[C@H](O)C(NCc2ccc(N(C)C)cc2)[C@@H]1O (some centres unmarked) [Compound 50, N-(4-N,N-Di-methylaminobenzyl) Compound 1] |  |  | 2 µg/mL (≈ 1.95 µM) | 2 µg/mL (≈ 1.95 µM) | 8 µg/mL (≈ 7.79 µM) | 2 µg/mL (≈ 1.95 µM)
9 | CC1O[C@@H](O[C@H]2/C=C/C=C/C=C/C=C/C=C/C=C/C=C/[C@H](C)[C@@H](O)[C@@H](C)[C@H](C)OC(=O)C[C@H](O)C[C@H](O)C[C@H](O)CC[C@@H](O)[C@H](O)C[C@]3(O)C[C@H](O)[C@@H](C)[C@H](C2)O3)[C@H](O)C(N)[C@@H]1O.Cl (some centres unmarked) [Compound 53, Compound 1 Hydrochloride] |  |  | 2 µg/mL | 2 µg/mL | 4 µg/mL | 4 µg/mL
10 | CC1O[C@@H](O[C@H]2/C=C/C=C/C=C/C=C/C=C/C=C/C=C/[C@H](C)[C@@H](O)[C@@H](C)[C@H](C)OC(=O)C[C@H](O)C[C@H](O)C[C@H](O)CC[C@@H](O)[C@H](O)C[C@]3(O)C[C@H](O)[C@@H](C)[C@H](C2)O3)[C@H](O)C(N)[C@@H]1O.N[C@H](CCC(=O)O)C(=O)O (some centres unmarked) [Compound 54] |  |  | 2 µg/mL | 2 µg/mL | 2 µg/mL | 2 µg/mL
11 | CC1O[C@@H](O[C@H]2/C=C/C=C/C=C/C=C/C=C/C=C/C=C/[C@H](C)[C@@H](O)[C@@H](C)[C@H](C)OC(=O)C[C@H](O)C[C@H](O)C[C@H](O)CC[C@@H](O)[C@H](O)C[C@]3(O)C[C@H](O)[C@@H](C)[C@H](C2)O3)[C@H](O)C(N)[C@@H]1O.N[C@@H](CC(=O)O)C(=O)O (some centres unmarked) [Compound 55] |  |  | 2 µg/mL | 2 µg/mL | 2 µg/mL | 2 µg/mL
12 | CC1O[C@@H](O[C@H]2/C=C/C=C/C=C/C=C/C=C/C=C/C=C/[C@H](C)[C@@H](O)[C@@H](C)[C@H](C)OC(=O)C[C@H](O)C[C@H](O)C[C@H](O)CC[C@@H](O)[C@H](O)C[C@]3(O)C[C@H](O)[C@@H](C)[C@H](C2)O3)[C@H](O)C(N)[C@@H]1O.O=C(O)C(Cl)Cl (some centres unmarked) [Compound 57] |  |  | 2 µg/mL | 2 µg/mL | 2 µg/mL | 2 µg/mL
